Measured values taken from patent US12343326B2, “Psychoactive medicines and their use for treating psychiatric and neurological conditions and disorders” (Transcend Therapeutics, Inc., priority 2021, dated 2025).

Experiments:
Assay in all cases: β-arrestin based GPCR screen (PathHunter / GPCRmax), agonist mode
Format in all cases: cell-based
Parameters in all cases: host or cells: PathHunter cell lines
[1] = target: 168 GPCRs (Homo sapiens, UniProt P32246); settings: CCR1, Agonist
Description: (§1) For agonist determination, cells were incubated with sample to induce response. […] Vehicle concentration was 1%.

[2] = target: 168 GPCRs (Homo sapiens, UniProt P22888); settings: LHCGR
Description: as §1

[3] = target: 168 GPCRs (Homo sapiens, UniProt P33032); settings: MC5R
Description: as §1

[4] = target: 168 GPCRs (Homo sapiens, UniProt Q96P65)
Description: as §1

[5] = target: 168 GPCRs (Homo sapiens, UniProt P48145)
Description: as §1

[6] = target: 168 GPCRs (Homo sapiens, UniProt P49238)
Description: as §1

[7] = target: T1, 168 GPCRs (Homo sapiens, UniProt P24530); settings: EDNRB
T1 sequence (P24530 27-442): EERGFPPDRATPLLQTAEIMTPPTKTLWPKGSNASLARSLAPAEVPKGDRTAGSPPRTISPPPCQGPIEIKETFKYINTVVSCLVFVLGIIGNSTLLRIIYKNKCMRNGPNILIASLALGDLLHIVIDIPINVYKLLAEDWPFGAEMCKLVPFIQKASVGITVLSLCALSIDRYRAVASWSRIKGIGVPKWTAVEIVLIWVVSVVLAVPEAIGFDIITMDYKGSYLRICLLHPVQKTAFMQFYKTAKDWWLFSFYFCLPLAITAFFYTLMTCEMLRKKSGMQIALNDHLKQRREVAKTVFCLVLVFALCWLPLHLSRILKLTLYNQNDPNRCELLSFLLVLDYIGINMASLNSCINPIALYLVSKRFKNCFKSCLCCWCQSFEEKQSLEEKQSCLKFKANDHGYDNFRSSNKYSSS
Description: as §1

[8] = target: 168 GPCRs (Homo sapiens, UniProt P35414); settings: AGTRL1, Agonist
Description: as §1

[9] = target: 168 GPCRs (Homo sapiens, UniProt Q03431)
Description: as §1

[10] = target: 168 GPCRs (Homo sapiens, UniProt P43116)
Description: as §1

[11] = target: 168 GPCRs (Homo sapiens, UniProt P43088); settings: PTGFR
Description: as §1

[12] = target: 168 GPCRs (Homo sapiens, UniProt O95838); settings: GLP2R
Description: as §1

[13] = target: 168 GPCRs (Homo sapiens, UniProt P35372)
Description: as §1

[14] = target: 168 GPCRs (Homo sapiens, UniProt P55085)
Description: as §1

[15] = target: 168 GPCRs (Homo sapiens, UniProt P50391)
Description: as §1

[16] = target: 168 GPCRs (Homo sapiens, UniProt P25105); settings: PTAFR
Description: as §1

[17] = target: 168 GPCRs (Homo sapiens, UniProt P49190)
Description: as §1

[18] = target: 168 GPCRs (Homo sapiens, UniProt Q96LB1)
Description: as §1

[19] = target: 168 GPCRs (Homo sapiens, UniProt Q16581); settings: C3AR1, Agonist
Description: as §1

[20] = target: 168 GPCRs (Homo sapiens, UniProt P21452)
Description: as §1

168 GPCRs (Homo sapiens, UniProt Q03431), sequence (Q03431 27-593): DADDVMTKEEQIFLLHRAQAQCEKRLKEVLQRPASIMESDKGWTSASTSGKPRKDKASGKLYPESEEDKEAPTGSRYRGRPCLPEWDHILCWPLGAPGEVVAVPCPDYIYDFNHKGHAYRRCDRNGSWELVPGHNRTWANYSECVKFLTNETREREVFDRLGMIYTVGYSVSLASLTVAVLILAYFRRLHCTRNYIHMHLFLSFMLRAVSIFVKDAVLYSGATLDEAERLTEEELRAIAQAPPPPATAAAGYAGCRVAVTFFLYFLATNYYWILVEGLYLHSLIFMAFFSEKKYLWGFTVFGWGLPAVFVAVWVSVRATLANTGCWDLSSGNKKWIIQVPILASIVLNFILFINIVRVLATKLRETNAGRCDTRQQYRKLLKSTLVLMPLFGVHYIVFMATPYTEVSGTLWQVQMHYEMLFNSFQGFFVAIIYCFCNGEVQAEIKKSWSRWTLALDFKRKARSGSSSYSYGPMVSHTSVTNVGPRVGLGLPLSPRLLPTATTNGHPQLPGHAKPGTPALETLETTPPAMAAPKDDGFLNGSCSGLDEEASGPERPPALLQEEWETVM
168 GPCRs (Homo sapiens, UniProt P22888), sequence (P22888 27-699): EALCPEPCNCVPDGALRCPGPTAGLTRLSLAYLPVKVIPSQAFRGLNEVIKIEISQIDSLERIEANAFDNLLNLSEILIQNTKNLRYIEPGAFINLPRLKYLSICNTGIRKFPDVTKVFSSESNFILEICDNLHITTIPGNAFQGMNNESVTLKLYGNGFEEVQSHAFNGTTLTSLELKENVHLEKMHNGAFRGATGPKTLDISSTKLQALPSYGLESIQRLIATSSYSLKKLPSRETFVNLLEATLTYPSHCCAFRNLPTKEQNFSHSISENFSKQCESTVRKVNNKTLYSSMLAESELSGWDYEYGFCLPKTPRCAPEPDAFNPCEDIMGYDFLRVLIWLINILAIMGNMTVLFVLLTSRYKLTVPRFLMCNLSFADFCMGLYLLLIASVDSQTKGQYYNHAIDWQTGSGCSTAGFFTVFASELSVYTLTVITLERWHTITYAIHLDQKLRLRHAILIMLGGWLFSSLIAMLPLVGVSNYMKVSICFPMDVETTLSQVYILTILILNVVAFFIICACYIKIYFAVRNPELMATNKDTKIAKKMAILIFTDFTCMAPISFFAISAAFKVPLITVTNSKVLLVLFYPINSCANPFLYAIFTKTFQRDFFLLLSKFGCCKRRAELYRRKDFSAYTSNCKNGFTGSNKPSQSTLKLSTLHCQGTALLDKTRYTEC
168 GPCRs (Homo sapiens, UniProt P50391), sequence (P50391 whole entry): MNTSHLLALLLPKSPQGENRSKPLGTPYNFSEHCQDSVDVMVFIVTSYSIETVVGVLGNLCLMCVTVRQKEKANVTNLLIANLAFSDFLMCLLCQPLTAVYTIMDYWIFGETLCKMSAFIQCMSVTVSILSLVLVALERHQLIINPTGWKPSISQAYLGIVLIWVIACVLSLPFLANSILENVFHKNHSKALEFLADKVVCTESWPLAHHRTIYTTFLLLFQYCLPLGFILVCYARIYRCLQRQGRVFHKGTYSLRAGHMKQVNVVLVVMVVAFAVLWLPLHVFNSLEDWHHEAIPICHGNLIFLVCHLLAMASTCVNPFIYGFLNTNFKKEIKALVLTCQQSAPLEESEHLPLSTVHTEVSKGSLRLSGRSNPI
168 GPCRs (Homo sapiens, UniProt P48145), sequence (P48145 whole entry): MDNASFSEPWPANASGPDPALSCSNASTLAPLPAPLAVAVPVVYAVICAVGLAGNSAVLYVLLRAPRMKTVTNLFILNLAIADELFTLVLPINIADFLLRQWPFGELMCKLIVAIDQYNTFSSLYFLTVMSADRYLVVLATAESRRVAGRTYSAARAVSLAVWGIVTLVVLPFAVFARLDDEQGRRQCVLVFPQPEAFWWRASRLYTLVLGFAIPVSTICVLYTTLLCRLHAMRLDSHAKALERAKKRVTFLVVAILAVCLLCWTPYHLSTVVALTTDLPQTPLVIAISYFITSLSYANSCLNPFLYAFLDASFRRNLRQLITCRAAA
168 GPCRs (Homo sapiens, UniProt P32246), sequence (P32246 whole entry): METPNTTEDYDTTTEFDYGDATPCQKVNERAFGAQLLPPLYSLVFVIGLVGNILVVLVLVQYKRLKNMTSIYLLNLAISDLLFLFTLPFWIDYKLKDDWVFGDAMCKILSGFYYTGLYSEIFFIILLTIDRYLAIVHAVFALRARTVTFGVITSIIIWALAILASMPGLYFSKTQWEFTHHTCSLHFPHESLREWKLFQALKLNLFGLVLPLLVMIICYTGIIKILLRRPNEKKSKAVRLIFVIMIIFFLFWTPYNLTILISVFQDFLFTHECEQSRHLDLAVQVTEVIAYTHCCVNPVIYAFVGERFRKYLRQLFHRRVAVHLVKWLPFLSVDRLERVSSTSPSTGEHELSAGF
168 GPCRs (Homo sapiens, UniProt P33032), sequence (P33032 whole entry): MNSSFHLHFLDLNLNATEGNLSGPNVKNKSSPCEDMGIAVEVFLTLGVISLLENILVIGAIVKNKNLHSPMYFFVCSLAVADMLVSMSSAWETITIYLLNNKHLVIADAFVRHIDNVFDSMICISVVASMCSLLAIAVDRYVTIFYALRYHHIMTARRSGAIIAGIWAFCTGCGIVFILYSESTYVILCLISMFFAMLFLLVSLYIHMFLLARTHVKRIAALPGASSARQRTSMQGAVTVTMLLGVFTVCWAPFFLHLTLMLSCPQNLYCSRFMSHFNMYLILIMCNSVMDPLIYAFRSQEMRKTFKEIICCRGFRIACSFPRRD
168 GPCRs (Homo sapiens, UniProt O95838), sequence (O95838 whole entry): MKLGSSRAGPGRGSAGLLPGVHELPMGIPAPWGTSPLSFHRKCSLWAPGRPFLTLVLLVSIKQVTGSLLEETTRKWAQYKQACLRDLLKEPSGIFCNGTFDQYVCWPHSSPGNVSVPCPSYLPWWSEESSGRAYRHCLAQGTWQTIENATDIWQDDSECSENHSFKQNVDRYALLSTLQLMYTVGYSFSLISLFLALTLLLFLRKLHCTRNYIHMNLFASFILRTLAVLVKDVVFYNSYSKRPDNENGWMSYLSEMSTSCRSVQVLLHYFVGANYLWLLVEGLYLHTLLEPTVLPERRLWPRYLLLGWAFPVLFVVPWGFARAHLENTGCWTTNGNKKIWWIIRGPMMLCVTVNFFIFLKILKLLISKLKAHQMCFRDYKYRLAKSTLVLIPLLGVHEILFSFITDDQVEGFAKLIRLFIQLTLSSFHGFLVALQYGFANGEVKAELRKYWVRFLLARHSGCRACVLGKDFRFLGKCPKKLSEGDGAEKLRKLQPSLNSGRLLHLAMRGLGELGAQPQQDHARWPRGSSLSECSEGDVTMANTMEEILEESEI
168 GPCRs (Homo sapiens, UniProt P21452), sequence (P21452 whole entry): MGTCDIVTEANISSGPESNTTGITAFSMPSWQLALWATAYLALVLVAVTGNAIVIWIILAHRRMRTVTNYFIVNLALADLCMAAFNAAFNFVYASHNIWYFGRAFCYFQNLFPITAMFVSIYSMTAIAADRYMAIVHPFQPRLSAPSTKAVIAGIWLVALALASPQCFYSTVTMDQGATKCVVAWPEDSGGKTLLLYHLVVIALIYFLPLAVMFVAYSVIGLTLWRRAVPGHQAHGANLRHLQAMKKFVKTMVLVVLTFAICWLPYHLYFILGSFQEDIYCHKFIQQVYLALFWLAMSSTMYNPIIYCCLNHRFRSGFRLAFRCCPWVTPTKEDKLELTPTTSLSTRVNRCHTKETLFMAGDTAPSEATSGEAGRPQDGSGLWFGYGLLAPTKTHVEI
168 GPCRs (Homo sapiens, UniProt Q96P65), sequence (Q96P65 whole entry): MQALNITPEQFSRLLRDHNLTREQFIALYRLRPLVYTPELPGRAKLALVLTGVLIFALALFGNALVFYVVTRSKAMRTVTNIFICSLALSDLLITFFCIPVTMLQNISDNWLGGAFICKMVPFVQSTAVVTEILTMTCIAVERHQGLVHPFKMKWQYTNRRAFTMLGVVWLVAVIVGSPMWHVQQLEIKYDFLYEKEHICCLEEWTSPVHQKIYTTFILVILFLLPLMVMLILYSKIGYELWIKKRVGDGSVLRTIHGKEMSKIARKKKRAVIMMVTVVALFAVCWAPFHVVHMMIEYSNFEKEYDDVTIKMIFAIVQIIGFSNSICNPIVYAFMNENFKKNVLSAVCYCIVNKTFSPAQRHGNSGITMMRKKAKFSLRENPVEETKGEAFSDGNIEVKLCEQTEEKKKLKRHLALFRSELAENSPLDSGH
168 GPCRs (Homo sapiens, UniProt P35414), sequence (P35414 whole entry): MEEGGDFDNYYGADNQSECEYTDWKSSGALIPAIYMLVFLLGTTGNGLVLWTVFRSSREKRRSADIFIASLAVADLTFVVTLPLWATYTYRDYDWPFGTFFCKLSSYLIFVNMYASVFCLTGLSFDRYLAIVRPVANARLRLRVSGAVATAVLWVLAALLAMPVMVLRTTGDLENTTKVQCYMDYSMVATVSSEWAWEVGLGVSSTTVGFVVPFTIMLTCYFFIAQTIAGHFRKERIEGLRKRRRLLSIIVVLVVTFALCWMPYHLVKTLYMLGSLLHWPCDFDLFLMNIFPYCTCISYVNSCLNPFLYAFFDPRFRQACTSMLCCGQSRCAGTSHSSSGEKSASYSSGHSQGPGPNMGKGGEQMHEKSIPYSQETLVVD
168 GPCRs (Homo sapiens, UniProt P55085), sequence (P55085 26-397): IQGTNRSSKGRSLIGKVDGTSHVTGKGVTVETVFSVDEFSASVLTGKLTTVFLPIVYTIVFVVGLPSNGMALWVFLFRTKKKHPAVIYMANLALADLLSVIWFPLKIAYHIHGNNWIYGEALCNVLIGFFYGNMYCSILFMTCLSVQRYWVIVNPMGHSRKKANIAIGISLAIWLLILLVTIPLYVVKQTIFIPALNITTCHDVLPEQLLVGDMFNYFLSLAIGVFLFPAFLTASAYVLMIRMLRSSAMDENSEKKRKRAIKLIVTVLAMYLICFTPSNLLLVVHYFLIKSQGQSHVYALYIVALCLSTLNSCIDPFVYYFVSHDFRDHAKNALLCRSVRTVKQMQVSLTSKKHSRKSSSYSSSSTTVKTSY

## CNC(C)C(=O)c1ccc2c(c1)OCO2 (stereo not shown) [methylone, 3,4-methylenedioxy-N-methylcathinone]
[1]; 1 uM
  activity at 1 µM: -2.6%
[1]; 10 uM
  activity at 10 µM: 3.6%
[2]; Agonist mode, 10 uM
  activity at 10 µM: 0.4%
[2]; Agonist, 1 uM
  activity at 1 µM: 0.4%
[3]; Agonist mode, 10 uM
  activity at 10 µM: 8.9%
[3]; Agonist, 1 uM
  activity at 1 µM: -7.9%
[4]; GPR103, Agonist mode, 10 uM
  activity at 10 µM: 3.13%
[4]; GPR103, Agonist, 1 uM
  activity at 1 µM: 0.8%
[5]; NPBWR1, Agonist mode, 10 uM
  activity at 10 µM: -1.9%
[5]; NPBWR1, Agonist, 1 uM
  activity at 1 µM: 1.6%
[6]; CX3CR1, Agonist mode, 10 uM
  activity at 10 µM: -0.4%
[6]; CX3CR1, Agonist, 1 uM
  activity at 1 µM: 0%
[7]; Agonist mode, 10 uM
  activity at 10 µM: -0.1%
[7]; Agonist, 1 uM
  activity at 1 µM: 0.7%
[8]; 1 uM
  activity at 1 µM: -0.9%
[8]; 10 uM
  activity at 10 µM: -1.5%
[9]; PTHR1, Agonist mode, 10 uM
  activity at 10 µM: 0.1%
[9]; PTHR1, Agonist, 1 uM
  activity at 1 µM: 0%
[10]; PTGER2, Agonist mode, 10 uM
  activity at 10 µM: -3.1%
[10]; PTGER2, Agonist, 1 uM
  activity at 1 µM: -1.4%
[11]; Agonist mode, 10 uM
  activity at 10 µM: -0.2%
[11]; Agonist, 1 uM
  activity at 1 µM: 0.3%
[12]; Agonist mode, 10 uM
  activity at 10 µM: -13%
[12]; Agonist, 1 uM
  activity at 1 µM: -1.5%
[13]; OPRM1, OPRM1, Agonist mode, 10 uM
  activity at 10 µM: 0.5%
[13]; OPRM1, OPRM1, Agonist, 1 uM
  activity at 1 µM: 0.2%
[14]; F2RL1, Agonist mode, 10 uM
  activity at 10 µM: 3.8%
[14]; F2RL1, Agonist, 1 uM
  activity at 1 µM: -0.6%
[15]; PPYR1, Agonist mode, 10 uM
  activity at 10 µM: -1.2%
[15]; PPYR1, Agonist, 1 uM
  activity at 1 µM: -1.7%
[16]; Agonist mode, 10 uM
  activity at 10 µM: -2.6%
[16]; Agonist, 1 uM
  activity at 1 µM: -1.3%
[17]; PTHR2, Agonist mode, 10 uM
  activity at 10 µM: -0.5%
[17]; PTHR2, Agonist, 1 uM
  activity at 1 µM: -0.6%
[18]; MRGPRX2, Agonist mode, 10 uM
  activity at 10 µM: 0.73%
[18]; MRGPRX2, Agonist, 1 uM
  activity at 1 µM: 1.4%
[19]; 1 uM
  activity at 1 µM: -0.1%
[19]; 10 uM
  activity at 10 µM: 0%
[20]; TACR2, Agonist mode, 10 uM
  activity at 10 µM: -3.3%
[20]; TACR2, Agonist, 1 uM
  activity at 1 µM: -1.9%
